≈ marks a conversion by molar mass, not a printed value.
How the values were obtained:
[1] = test system: Herpes Simplex Virus type 1; experiment: Inhibition of Herpes Simplex Virus type 1 replication; format: cell-based
Description: (§1) Compounds of the invention show anti-viral and anti-tumor activity. 1-(2-Deoxy-2-fluoro-β-D-arabinofuranosyl)-5-iodocytosine inhibits Herpes Simplex Virus type 1 and type 2 replication. HFEM, Patton, 2931, and F-strain HSV-1 and 333 and G-strain HSV-2 are effected at concentrations of 1-(2-deoxy-2-fluoro-β-D-arabinofuranosyl)-5-iodocytosine 0.01μM (approximately 0.004 μg/ml).
(§2) The effective doses for 1-(2-deoxy-2-fluoro-β-D-arabinofuranosyl)-5-iodocytosine are given below. 1-(2-deoxy-2-fluoro-β-D-arabinofuranosyl)-5-iodocytosine is diluted in physiological saline, filter sterilized, and inoculated. This compound is readily soluble at concentrations of 25 mg/ml in saline. In mouse studies, the drug is inoculated by the intraperitoneal route.

[2] = test system: Herpes Simplex Virus type 2; experiment: Inhibition of Herpes Simplex Virus type 2 replication; format: cell-based
Description: as §1, §2

[3] = test system: cytomegalovirus (CMV strain AD 169); experiment: Activity against cytomegalovirus (plaque formation on WI-38 cells); format: cell-based
[4] = test system: HSV-1 strain 2931; experiment: In vivo HSV-1 infection of A/J mice; settings: for mice that survived the 21 day experiment: starting 24 hours after inoculation, intraperitoneal
Description: as §2
1-(2-deoxy-2-fluoro-β-D-arabinofuranosyl)-5-iodocytosine was also shown to be active in vivo. A/J mice were inoculated with approximately 50 LD50 of HSV-1 strain 2931 intraperitoneally and then treated with 1-(2-deoxy-2-fluoro-β-D-arabinofuranosyl)-5-iodocytosine starting 24 hours later. 1-(2-deoxy-2-fluoro-β-D-arabinofuranosyl)-5-iodocytosinewas given at 10 and 1 mg/kg/da for 5 days. Untreated mice died 8 days post inoculation. Five of 10 mice treated with 10 mg/kg/day survived the 21 day experiment. Two of 10 treated with 1 mg/kg/da survival the 21 day experiment and the remainder died an average of 10 days after inoculation.

[5] = Toxicity to normal human lymphoblastoid cells; format: cell-based; settings: read-out: concentration up to which not toxic to normal human lymphoblastoid cells
Description: Since 1-(2-deoxy-2-fluoro-β-D-arabinofuranosyl)-5-iodocytosine was not toxic to normal human lymphoblastoid cells at concentrations of up to 10 μM, the compound is believed to affect tumor cells at concentrations 1/100th those needed to suppress normal cell replication.

[6] = test system: herpes zoster virus; experiment: Anti-viral activity against herpes zoster virus; format: cell-based
[7] = test system: herpes simplex virus-type 1 DNA; experiment: Inhibition of replication of HSV-1 DNA versus cellular DNA in the same infected cells; format: cell-based; settings: viral vs cellular DNA in the same infected cells
[8] = test system: viral versus the cellular enzymes (TK and DNA polymerase); experiment: Direct testing of interaction with the viral versus the cellular enzymes; format: biochemical; settings: FIAC or its triphosphate
[9] = test system: turkey herpesvirus; experiment: In vivo test on avian (turkey) herpesvirus in day-old chicks; settings: 2.5 mg FIAC per 50 g chick at intervals
Description: In vivo tests were run to determine the effect of FIAC on avian (turkey) herpesvirus. To this end, day-old chicks were infected with turkey herpesvirus and treated at intervals with 2.5 mg FIAC per 50 g chick.

[10] = test system: L5178Y; experiment: Cytotoxicity, 50% inhibition of growth of L5178Y cells in vitro; format: cell-based; settings: Mus musculus, 96 hrs. incubation at 37° C., read-out: Cytoxicity ID50
Description: Concentration required for 50% inhibition of growth of cells in vitro
after 96 hrs. incubation at 37° C.

[11] = test system: herpes simplex virus (HSV); settings: cited from earlier work
[12] = test system: uninfected cells; settings: compared with 5-iodo (or 5-bromo)-2'-deoxyuridine; cited from earlier work
[13] = series of herpes simplex virus-types 1 and 2

Nc1nc(=O)n([C@@H]2O[C@H](CO)[C@@H](O)[C@@H]2F)cc1I [1-(2-deoxy-2-fluoro-β-D-arabinofuranosyl)-5-iodocytosine]
minimal effective concentration ([1]; Human alphaherpesvirus 1, HFEM, Patton, 2931, and F-strain HSV-1, read-out: concentration at which HSV-1 strains are effected): ~0.004 µg/mL
anti-viral activity [1, 13]: impressive anti-viral activity
minimal effective concentration ([2]; Human alphaherpesvirus 2, 333 and G-strain HSV-2, read-out: concentration at which HSV-2 strains are effected): ~0.004 µg/mL
anti-viral activity [2, 13]: impressive anti-viral activity
sensitivity of cytomegalovirus to anti-viral effect [3]: sensitive
mice that survived the 21 day experiment ([4]; 1 mg/kg/da for 5 days): Two of 10
average time of death after inoculation (remainder) ([4]; 1 mg/kg/da for 5 days, untreated mice died 8 days post inoculation): 10 days
mice that survived the 21 day experiment ([4]; 10 mg/kg/day for 5 days): Five of 10
MNTC [5]: > 10 µM
anti-viral activity [6]: impressive anti-viral activity
selective inhibition of replication of viral DNA [7]: selectively inhibit the replication of herpes simplex virus-type 1 DNA but not cellular DNA
selectivity for viral versus cellular enzymes [8]: selectivity was demonstrated
effect on virus induced leukopenia / inhibition of the virus [9]: brought the virus induced leukopenia back to the levels of the control uninfected chicks and thus inhibited the virus

O=c1[nH]c(=O)n([C@@H]2O[C@H](CO)[C@@H](O)[C@@H]2F)cc1Cl [Vc, 1-(2-deoxy-2-fluoro-β-D-arabinofuranosyl)-5-chlorouracil]
IC50 [10]: 1.4 µg/mL (≈ 4.99 µM)

O=c1[nH]c(=O)n([C@@H]2O[C@H](CO)[C@@H](O)[C@@H]2F)cc1Br [Vd, 1-(2-deoxy-2-fluoro-β-D-arabinofuranosyl)-5-bromouracil]
IC50 [10]: 0.9 µg/mL (≈ 2.77 µM)

Cc1cn([C@@H]2O[C@H](CO)[C@@H](O)[C@@H]2F)c(=O)[nH]c1=O [Vf, 1-(2-deoxy-2-fluoro-β-D-arabinofuranosyl)thymine]
sensitivity of cytomegalovirus to anti-viral effect [3]: sensitive

Nc1ccn([C@@H]2O[C@H](CO)[C@@H](O)[C@@H]2F)c(=O)n1 [IVa, 1-(2-deoxy-2-fluoro-β-D-arabinofuranosyl)cytosine, reference compound]
IC50 [10]: 0.05 µg/mL (≈ 0.204 µM)

O=c1[nH]c(=O)n([C@@H]2O[C@H](CO)[C@@H](O)[C@@H]2F)cc1I [Ve, 1-(2-deoxy-2-fluoro-β-D-arabinofuranosyl)-5-iodouracil]
IC50 [10]: 0.9 µg/mL (≈ 2.42 µM)

Nc1nc(=O)n([C@@H]2O[C@H](CO)[C@@H](O)[C@@H]2F)cc1Cl [IVc, 1-(2-deoxy-2-fluoro-β-D-arabinofuranosyl)-5-chlorocytosine]
IC50 [10]: 1.4 µg/mL (≈ 5.01 µM)

Nc1nc(=O)n([C@H]2C[C@H](O)[C@@H](CO)O2)cc1I [5-iodo-2'-deoxycytidine]
inhibition of HSV replication [11]: as effectively as their corresponding deoxyuridine analogs
toxicity to uninfected cells [12]: less toxic to uninfected cells

O=c1ccn([C@@H]2O[C@H](CO)[C@@H](O)[C@@H]2F)c(=O)[nH]1 [Va]
IC50 [10]: > 10 µg/mL

O=c1[nH]c(=O)n([C@@H]2O[C@H](CO)[C@@H](O)[C@@H]2F)cc1F [Vb, 1-(2-deoxy-2-fluoro-β-D-arabinofuranosyl)-5-fluorouracil]
IC50 [10]: 1 µg/mL (≈ 3.79 µM)

Nc1nc(=O)n([C@@H]2O[C@H](CO)[C@@H](O)[C@@H]2F)cc1F [IVb, 1-(2-deoxy-2-fluoro-β-D-arabinofuranosyl)-5-fluorocytosine]
IC50 [10]: 0.5 µg/mL (≈ 1.9 µM)

Cl.Nc1nc(=O)n([C@@H]2O[C@H](CO)[C@@H](O)[C@@H]2F)cc1I [IVe, 1-(2-Deoxy-2-fluoro-β-D-arabinofuranosyl)-5-iodocytosine hydrochloride]
IC50 [10]: 48 µg/mL

Nc1nc(=O)n([C@@H]2O[C@H](CO)[C@@H](O)[C@@H]2F)cc1Br [IVd, 1-(2-deoxy-2-fluoro-β-D-arabinofuranosyl)-5-bromocytosine]
IC50 [10]: ~10 µg/mL (≈ 30.9 µM)

Nc1nc(=O)n([C@H]2C[C@H](O)[C@@H](CO)O2)cc1Br [5-Bromo-2'-deoxycytidine]
inhibition of HSV replication [11]: as effectively as their corresponding deoxyuridine analogs
toxicity to uninfected cells [12]: less toxic to uninfected cells

From patent US4594339A, “Anti-herpes virus compositions containing 5-substituted 1-2'(deoxy-2-'-substituted-β-d-arabinofuranosyl)pyrimedene nucleosides” (priority 1984, dated 1986)
